Reference: publication PMC10854695, “Using Flavonoid Substitution Status to Predict Anticancer Effects in Human Melanoma Cancers: An In Vitro Study” (Cancers, 2024)

Columns and labels:
A375 melanoma cells [1] = test: MTT cell viability assay, A375; settings: Homo sapiens;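 note: Read-out is formazan absorbance at 570 nm after 2 h with MTT, with compounds in at most 0.1% v/v DMSO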
Experimental: The MTT colorimetric assay was performed as a preliminary evaluation of the cytotoxicity of the selected flavonoids according to the method described and validated by Strawa et al. [21]. Briefly, melanoma cells and fibroblasts were seeded in 96-well microplates at a density of 1 × 10^4 cells per well. Fibroblasts were used as a control cell line in order to assess the selectivity of the compounds. […] Subsequently, the cells were washed with PBS, incubated with MTT solution for 2 h, and lysed with dimethyl sulfoxide (DMSO) supplemented with 1% (v/v) Sorensen’s glycine buffer. The absorbance was measured using a microplate reader (EPOCH 2, BioTek, Winooski, VT, USA) at a wavelength of 570 nm. The compounds were used at a final DMSO concentration of no more than 0.1% (v/v) in each well. The results were generated from at least three independent experiments. […] The IC50 values were calculated with GraphPad Prism 9 software (GraphPad Software, San Diego, CA, USA).

A375 melanoma cells [2] = test: Neutral red uptake (NRU) assay, A375; settings: Homo sapiens, read-out: IC50, cytotoxic activity, NRU assay
Experimental: (§1) The NRU (neutral red uptake) was conducted as previously described by Szoka and co-workers, with some modifications [22]. Briefly, melanoma cells and fibroblasts were seeded in microplates at the density of 1 × 10^4 cells per well and allowed to adhere for 24 h. […] After treatment, the culture medium was replaced with a neutral red solution (40 µg/mL). An additional 2 h of incubation was performed. The neutral red solution was then removed and the neutral red accumulated in the cells was dissolved in 50% EtOH with 1% of the glacial acetic acid. The absorbance was estimated at 540 nm and IC50 values were calculated using GraphPad Prism software (GraphPad Software, San Diego, CA, USA).

C32 melanoma cells [3] = test: Neutral red uptake (NRU) assay, C32; settings: Homo sapiens
Experimental: as §1

[4] = MTT cell viability assay, normal cells; settings: human;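 note: fibroblasts served as non-cancer comparison line for selectivity versus melanoma cells, MTT reduction read as absorbance at 570 nm after 2 h dye exposure, compounds in ≤0.1% DMSO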
[5] = Neutral red uptake (NRU) assay, normal cells; settings: human
Experimental: as §1

C32 melanoma cells [6] = test: MTT cell viability assay, C32; settings: Homo sapiens, read-out: IC50, cytotoxic activity, MTT test;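 note: MTT added for 2 h, cells lysed in DMSO, absorbance read at 570 nm, compound vehicle kept at or below 0.1% DMSO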
[7] = A-375, 24 h, read-out: IC50, cytotoxic activity, MTT test, A375, 24 h
[8] = A-375, 48 h, read-out: IC50, cytotoxic activity, MTT test, A375, 48 h
[9] = A-375, 72 h, read-out: IC50, cytotoxic activity, MTT test, A375, 72 h
[10] = C32, 24 h, read-out: IC50, cytotoxic activity, NRU assay, C32, 24 h
[11] = C32, 48 h, read-out: IC50, cytotoxic activity, NRU assay, C32, 48 h
[12] = C32, 72 h, read-out: IC50, cytotoxic activity, NRU assay, C32, 72 h
[13] = human skin fibroblasts (CCD25Sk)

Structure (SMILES) | IC50 at 24 h [5, 13] [µM] | IC50 at 48 h [5, 13] [µM] | IC50 at 72 h [5, 13] [µM] | IC50 (A375 melanoma cells [1]; [7]) [µM] | IC50 (A375 melanoma cells [1]; [8]) [µM] | IC50 (A375 melanoma cells [1]; [9]) [µM] | IC50 (A375 melanoma cells [2]; A-375, 24 h) [µM] | IC50 (A375 melanoma cells [2]; A-375, 48 h) [µM] | IC50 (A375 melanoma cells [2]; A-375, 72 h) [µM] | IC50 (C32 melanoma cells [3]; [10]) [µM] | IC50 (C32 melanoma cells [3]; [11]) [µM] | IC50 (C32 melanoma cells [3]; [12]) [µM] | IC50 at 24 h [4, 13] [µM] | IC50 at 48 h [4, 13] [µM] | IC50 at 72 h [4, 13] [µM] | IC50 (C32 melanoma cells [6]; C32, 24 h) [µM] | IC50 (C32 melanoma cells [6]; C32, 48 h) [µM] | IC50 (C32 melanoma cells [6]; C32, 72 h) [µM] | also measured
O=c1c(-c2ccc(O)cc2)coc2cc(O)ccc12 [Compound 36, daidzein] | > 200 | > 200 | > 200 | > 200 | > 200 | > 200 | > 200 | > 200 | > 200 | > 200 | > 200 | > 200 | > 200 | > 200 | > 200 | > 200 | > 200 | > 200 | –
O=c1c(O)c(-c2ccc(O)c(O)c2)oc2cc(O)cc(O)c12 [Compound 24, quercetin] | > 200 | 92.6 ± 4.2 | 36.4 ± 0.23 | > 200 | > 200 | 74.4 ± 5 | 100 to 200 | 84.7 ± 6.5 | 79.2 ± 7.3 | > 200 | 58 ± 3.5 | 47.5 ± 4.3 | > 200 | > 200 | 36.1 ± 2 | > 200 | > 200 | 68.1 ± 4.6 | –
COc1cc(O)c2c(=O)c(O)c(-c3ccc(O)c(O)c3)oc2c1 [Compound 25, 7-methoxyquercetin] | > 200 | 66.3 ± 5.6 | 38.4 ± 3.4 | 100 to 200 | 42.1 ± 3 | 25.1 ± 2.3 | > 200 | 63.4 ± 4.8 | 43.7 ± 3.5 | > 200 | 55.4 ± 4.3 | 28.4 ± 2.5 | 100 to 200 | 45.3 ± 2.3 | 35.7 ± 2.9 | > 200 | 100 to 200 | 37.7 ± 2.5 | –
COc1cc(-c2oc3cc(O)cc(O)c3c(=O)c2O)ccc1O [Compound 26, 3′-methoxyquercetin] | – | – | – | – | – | – | > 200 | 100 to 200 | 78.1 ± 6.5 | – | – | – | – | – | – | > 200 | 100 to 200 | 49.3 ± 3.6 | IC50 (A375 melanoma cells [1]; A-375, 24 h, read-out: IC50, cytotoxic activity, MTT test): 86.3 ± 5.9 µM; IC50 (A375 melanoma cells [1]; A-375, 48 h, read-out: IC50, cytotoxic activity, MTT test): 68.5 ± 3.9 µM; IC50 (A375 melanoma cells [1]; A-375, 72 h, read-out: IC50, cytotoxic activity, MTT test): 50.8 ± 4 µM; IC50 (C32 melanoma cells [3]; C32, 24 h, read-out: IC50, cytotoxic activity, NRU assay): > 200 µM; IC50 (C32 melanoma cells [3]; C32, 48 h, read-out: IC50, cytotoxic activity, NRU assay): 100 to 200 µM; IC50 (C32 melanoma cells [3]; C32, 72 h, read-out: IC50, cytotoxic activity, NRU assay): 65.1 ± 4 µM; IC50 at 24 h [4]: 100 to 200 µM; IC50 at 48 h [4]: 68.5 ± 5.4 µM; IC50 at 72 h [4]: 46.2 ± 3.3 µM; IC50 at 24 h [5]: > 200 µM; IC50 at 48 h [5]: 78.7 ± 5.5 µM; IC50 at 72 h [5]: 69.2 ± 4.6 µM
O=c1cc(-c2ccc(O)cc2)oc2c([C@@H]3O[C@H](CO)[C@@H](O)[C@H](O)[C@H]3O)c(O)cc(O)c12 [Compound 2, apigenin 8-C-glucoside] | > 200 | > 200 | > 200 | > 200 | > 200 | > 200 | > 200 | > 200 | > 200 | > 200 | > 200 | > 200 | > 200 | > 200 | > 200 | > 200 | > 200 | > 200 | –
COc1c(O)cc(O)c2c(=O)c(O)c(-c3ccc(O)cc3)oc12 [Compound 19, 8-methoxykaempferol] | > 200 | > 200 | 64.8 ± 5 | 100 to 200 | 100 to 200 | 61.8 ± 3.1 | 100 to 200 | 100 to 200 | 100 to 200 | 100 to 200 | 88.8 ± 7 | 71.9 ± 7 | > 200 | > 200 | 100 to 200 | 100 to 200 | 100 to 200 | 100 to 200 | –

Second part, led by results:

IC50 at 24 h [5, 13] [µM] | IC50 at 48 h [5, 13] [µM] | IC50 at 72 h [5, 13] [µM] | Structure (SMILES) | IC50 (A375 melanoma cells [1]; [7]) [µM] | IC50 (A375 melanoma cells [1]; [8]) [µM] | IC50 (A375 melanoma cells [1]; [9]) [µM] | IC50 (A375 melanoma cells [2]; A-375, 24 h) [µM] | IC50 (A375 melanoma cells [2]; A-375, 48 h) [µM] | IC50 (A375 melanoma cells [2]; A-375, 72 h) [µM] | IC50 (C32 melanoma cells [3]; [10]) [µM] | IC50 (C32 melanoma cells [3]; [11]) [µM] | IC50 (C32 melanoma cells [3]; [12]) [µM] | IC50 at 24 h [4, 13] [µM] | IC50 at 48 h [4, 13] [µM] | IC50 at 72 h [4, 13] [µM] | IC50 (C32 melanoma cells [6]; C32, 24 h) [µM] | IC50 (C32 melanoma cells [6]; C32, 48 h) [µM] | IC50 (C32 melanoma cells [6]; C32, 72 h) [µM] | also measured
> 200 | > 200 | > 200 | CC1OC(OCC2OC(Oc3c(-c4ccc(O)c(O)c4)oc4cc(OC5OC(CO)C(O)C(O)C5O)cc(O)c4c3=O)C(O)C(O)C2O)C(O)C(O)C1O (stereo not drawn) [Compound 29, quercetin 3-O-rutinoside-7-O-glucoside] | > 200 | > 200 | > 200 | > 200 | > 200 | > 200 | > 200 | > 200 | > 200 | > 200 | > 200 | > 200 | > 200 | > 200 | > 200 | –
> 200 | > 200 | > 200 | O=c1c(O[C@@H]2O[C@H](CO)[C@@H](O)[C@H](O)[C@H]2O)c(-c2ccc(O)cc2)oc2cc(O)cc(O)c12 [Compound 20, kaempferol 3-O-glucoside] | 94.2 ± 6.9 | 46.9 ± 3.5 | 21.5 ± 2.2 | > 200 | > 200 | > 200 | > 200 | > 200 | > 200 | > 200 | > 200 | > 200 | > 200 | > 200 | > 200 | –
> 200 | 69.8 ± 5.8 | 51.1 ± 3.2 | O=c1c(O)c(-c2ccc(O)cc2)oc2cc(O)cc(O)c12 [Compound 18, kaempferol] | 100 to 200 | 100 to 200 | 75.8 ± 5.8 | 100 to 200 | 57.4 ± 4.6 | 47.7 ± 3.9 | > 200 | 62.8 ± 3.5 | 34.4 ± 2.9 | 100 to 200 | 100 to 200 | 55.8 ± 4.5 | 100 to 200 | 100 to 200 | 58.4 ± 3.5 | –
> 200 | > 200 | > 200 | O=c1cc(-c2ccc(O)cc2)oc2cc(OC3OC(CO)C(O)C(O)C3O)cc(O)c12 (stereo not drawn) [Compound 3, apigenin 7-O-glucoside] | > 200 | > 200 | > 200 | > 200 | > 200 | > 200 | > 200 | > 200 | > 200 | > 200 | > 200 | > 200 | > 200 | > 200 | > 200 | –
> 200 | > 200 | > 200 | CC1OC(OCC2OC(Oc3cc(O)c4c(=O)cc(-c5ccc(O)cc5)oc4c3)C(O)C(O)C2O)C(O)C(O)C1O (stereo not drawn) [Compound 5, apigenin 7-O-rutinoside] | > 200 | > 200 | > 200 | > 200 | > 200 | > 200 | > 200 | > 200 | > 200 | > 200 | > 200 | > 200 | > 200 | > 200 | > 200 | –
> 200 | > 200 | > 200 | C[C@@H]1O[C@@H](OC[C@H]2O[C@@H](Oc3c(-c4ccc(O)c(O)c4)oc4cc(O)cc(O)c4c3=O)[C@H](O)[C@@H](O)[C@@H]2O)[C@H](O)[C@H](O)[C@H]1O [Compound 28, quercetin 3-O-rutinoside] | > 200 | 57 ± 3.1 | 57.8 ± 4.8 | > 200 | > 200 | > 200 | > 200 | > 200 | > 200 | > 200 | > 200 | > 200 | > 200 | > 200 | > 200 | –
> 200 | > 200 | > 200 | O=C(O)C1OC(Oc2cc(O)c3c(=O)cc(-c4ccc(O)cc4)oc3c2)C(O)C(O)C1O (stereo not drawn) [Compound 4, apigenin 7-O-glucuronide] | > 200 | > 200 | > 200 | > 200 | > 200 | > 200 | > 200 | > 200 | > 200 | > 200 | > 200 | > 200 | > 200 | > 200 | > 200 | –
> 200 | > 200 | > 200 | COc1ccc(C2CC(=O)c3c(O)cc(OC4OC(COC5OC(C)C(O)C(O)C5O)C(O)C(O)C4O)cc3O2)cc1O (stereo not drawn) [Compound 34, hesperetin 7-O-rutinoside] | > 200 | > 200 | > 200 | > 200 | > 200 | > 200 | > 200 | > 200 | > 200 | > 200 | > 200 | > 200 | > 200 | > 200 | > 200 | –
